“And” between values parts separate entries of the source, which are not always exact repeats. Equal values may be shown once. No end group written: not given here.
What was measured:
[1] = test system: substance P-induced contractions of guinea pig ileum; assay: Antagonism of substance P: inhibition of substance P-induced contractions of isolated guinea pig ileum; conditions: for Antagonist Activity (% Inhibition): 100 μM, substance P-induced contractions of isolated guinea pig ileum, 37° C., with atropine, diphenhydramine, indomethacin; for Modulation of substance P (in words): conclusion from Table 1
Source text: The ability of the calcium sulfate compounds of this invention to modulate substance P may be assayed by known techniques, such as those disclosed by Mizrahi et al. (Eur. J. Pharmacol. 91:139-140, 1983) and Holzer et al. (P. Eur. J. Pharmacol. 91:83-88, 1983). For example, PanLabs Test Numbers 3-0580 screen the ability of compounds to function as substance P antagonists by determining the ability of the compound to inhibit substance P-induced contractions of guinea pig ileum (see Example 6 herein below).
This example illustrates the ability of representative calcium sulfate compounds of this invention to modulate substance P by functioning as substance P antagonists. Activity was measured by the procedures disclosed by Mizrahi et al. (Eur. J. Pharmacol. 91:139-140, 1983) and Holzer et al., (Eur. J. Pharmacol. 91:83-88, 1983). Specifically, isolated guinea pig ileum, bathed in physiological salt solution containing atropine (4.5 μM), diphenhydramaine (3.4 μM), and indomethacin (2.8 μM) at 37° C. was used. The ability of a test compounds to inhibit substance P-induced contractions of the illeum indicates antagonist activity.

[2] = Single oral dose toxicity in Sprague Dawley rats, 14 day observation; assay type: in vivo, rat (Sprague Dawley); conditions: single oral dose 5 g/kg
Description: This example illustrates the non-toxic nature of a representative calcium sulfate compound of this invention (i.e., syngenite).
To determine the potential toxicity and/or toxic effects of syngenite when administered as a single oral dose in rats, 5 male and 5 female Sprague Dawley rats (200-300 grams) were administered syngenite at a dose level of 5 g/kg body weight by syringe and suitable intubation tubes.
The body weight of each rat was recorded (in grams) just prior to administration of syngenite (Day 0), and weekly thereafter for two weeks (i.e., Day 7 and Day 14).

[3] = test system: nasal protein output; conditions: exogenously applied, allergic rhinitis patients; cited from earlier work
[4] = test system: febrile response; conditions: microinjected into the preoptic area of conscious guinea pigs; cited from earlier work
[5] = test system: stomach injury; conditions: cited from earlier work
[6] = test system: cluster headaches; conditions: intranasal, humans; cited from earlier work
[7] = test system: neurogenic inflammation; conditions: pretreatment of the oral mucosa; cited from earlier work

## O.O=S(=O)(O)O.O=S(=O)(O)O.[Ca].[K].[K] [Syngenite]
[1]
  Antagonist Activity (% Inhibition): 40%
  Modulation of substance P (in words): effective modulating agents of substance P
[2]; female rats
  Body weight, Day 7: 255 grams and 266 grams and 251 grams and 269 grams and 279 grams
  Body weight, Day 14: 256 grams and 273 grams and 287 grams and 299 grams
[2]; male rats
  Body weight, Day 7: 350 grams and 333 grams and 329 grams and 336 grams and 337 grams
  Body weight, Day 14: 395 grams and 374 grams and 375 grams and 368 grams and 386 grams
[2]
  Gross abnormalities at necropsy: No gross abnormalities in any of the animals were observed
[2]; 5 male and 5 female rats, 14 days
  Survival / mortality: All ten test animals survived the 14 day observation period
[2]; 14 days
  Appearance of animals: all animals appeared normal
  Clinical observations: No clinical observations were noted
[2]; rats
  Toxicity (overall): non-toxic

## O.O=S(=O)([O-])[O-].O=S(=O)([O-])[O-].O=S(=O)([O-])[O-].O=S(=O)([O-])[O-].O=S(=O)([O-])[O-].O=S(=O)([O-])[O-].[Ca+2].[Ca+2].[Ca+2].[Ca+2].[Ca+2].[K+].[K+] [Gorgeyite]
[1]
  Antagonist Activity (% Inhibition): 16%
  Modulation of substance P (in words): effective modulating agents of substance P

## substance P: undecapeptide, member of the tachykinin family of mammalian regulatory peptides (RPKPQQFFGLM; ends and bridges not checked; UniProt P20366 58-68, looked up)
[3]
  Nasal protein output: causes an increase in nasal protein output
[4]
  Temperature: caused an increase in temperature
[5]; given IV
  Areas of injury (stomach): increased the areas of injury

## COc1cc(CNC(=O)CCCC/C=C/C(C)C)ccc1O [capsaicin]
[6]
  Severity of cluster headaches: decrease the severity of cluster headaches
[5]; intragastric, prior to challenge with 30% ETOH
  Area of stomach injury: reduced the area of stomach injury
[7]
  Neurogenic inflammation upon local administration of substance P: prevents neurogenic inflammation

## O.O.O=S(=O)([O-])[O-].[Ca+2] [Gypsum, calcium sulfate dihydrate]
[1]
  Antagonist Activity (% Inhibition): 39%
  Modulation of substance P (in words): effective modulating agents of substance P
